One data set concerns the target T1, HDAC4 (Homo sapiens, UniProt P56524).
T1 construct: purchased BPS 50004
Kind of data set: Enzymatic test HDAC4. The data set is classed as biochemical. Particulars: Table 3. How it is done:
(§1) After a period of incubation at 30° C. (incubation times vary for different isoforms and are shown in table 1) 25 μL of solution containing the substrate were added. As substrate, FLUOR DE LYS® deacetylase substrate (Enzo Life Sciences, cat #BML-K1104, FdL), FLUOR DE LYS®-Green substrate (Enzo Life Sciences, cat #BML-K1572 FdL_G) and trifluoroacetyl-L-lysine (Tfal)-2× concentrated solution in 25 mM Tris-HCl, pH 8, 130 mM NaCl 0.05% Tween-20 10% glycerol) were used. Following a reaction period at 30° C.

Data set [1] can be described thus: Stability to Phase I metabolism in human S9 liver fraction. The data set is classed as in vitro ADME. In short, it runs like this:
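Phase I stability in human and rat hepatic S9 at 37 °C, sampled up to 90 min. Samples were stopped with acidified acetonitrile on ice, then quantified by HPLC-UV or LC-MS/MS.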

The test system of data set [2] is peripheral blood mononuclear cells (PBMCs). The experiment in a line: Cytotoxicity on PBMCs (CellTiter 96). The data set is classed as cell-based. As to conditions: PBMC, 72 h; read-out: PBMC TOXICITY (72 h). In short, it runs like this: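 Mitochondrial-function readout (CellTiter 96 Aqueous One) after 72 h compound exposure, begun 24 h post-seeding. Dose ranges: 697 cells, 1 to 10000 nM at 2×10^4 cells/well; PBMCs, 1.5 to 10000 nM at 5×10^5 cells/well.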

The next data set deals with T2, HDAC11 (Homo sapiens, UniProt Q96DB2).
T2 construct: purchased BML SE560
T2 sequence (Q96DB2 1-347): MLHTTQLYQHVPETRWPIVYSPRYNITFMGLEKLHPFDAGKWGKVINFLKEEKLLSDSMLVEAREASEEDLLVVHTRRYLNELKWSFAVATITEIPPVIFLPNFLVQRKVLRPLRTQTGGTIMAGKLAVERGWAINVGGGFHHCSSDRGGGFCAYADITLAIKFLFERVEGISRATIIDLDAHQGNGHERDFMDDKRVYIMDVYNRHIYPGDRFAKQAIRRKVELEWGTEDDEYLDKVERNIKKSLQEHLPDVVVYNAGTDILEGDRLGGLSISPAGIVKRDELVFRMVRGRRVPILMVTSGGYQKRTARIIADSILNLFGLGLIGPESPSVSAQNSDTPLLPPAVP
The experiment in a line: Enzymatic test HDAC11. As to conditions: Table 3. The data set is classed as biochemical. How it is done: as §1

The mark [3] stands for this setting: human liver S9 fraction, after 90 min, 37° C.

T1 sequence (P56524 627-1084 limits assumed): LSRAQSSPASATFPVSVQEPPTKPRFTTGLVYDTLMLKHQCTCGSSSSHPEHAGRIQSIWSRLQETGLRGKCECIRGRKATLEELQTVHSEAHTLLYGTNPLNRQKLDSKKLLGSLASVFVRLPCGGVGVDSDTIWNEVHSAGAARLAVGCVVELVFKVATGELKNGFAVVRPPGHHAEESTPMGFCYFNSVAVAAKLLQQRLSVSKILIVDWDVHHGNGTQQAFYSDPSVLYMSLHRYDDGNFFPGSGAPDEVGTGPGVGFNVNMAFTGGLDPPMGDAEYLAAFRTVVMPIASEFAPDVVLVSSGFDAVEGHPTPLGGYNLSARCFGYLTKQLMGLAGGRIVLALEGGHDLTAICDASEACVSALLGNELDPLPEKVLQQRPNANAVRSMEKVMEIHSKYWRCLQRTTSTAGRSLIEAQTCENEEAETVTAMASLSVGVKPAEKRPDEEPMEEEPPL

With `COc1ccc(C(=O)N[C@@H](Cc2cscn2)c2nc(Cc3ccc(C(=O)NO)cc3)no2)cc1OC` [comp. 1, (S)—N-(1-(3-(4-(hydroxycarbamoyl)benzyl)-1,2,4-oxadiazol-5-yl)-2-(thiazol-4-yl)ethyl)-3,4-dimethoxybenzamide], the values for the IC50 (against HDAC4; in data set [2]; against HDAC11) were 10100 nM, 7000 nM and 2680 nM, respectively. Also, in data set [1] (human, 90 min, pH 7.4), the “residual percentage in human S9 fraction” value is listed as 81%.
For `Cn1c(Sc2c(F)cc(C(=O)NO)cc2F)nnc1-c1cccc2ccccc12` [comp. 2, 3,5-difluoro-N-hydroxy-4-((4-methyl-5-(naphthalen-1-yl)-4H-1,2,4-triazol-3-yl)thio)benzamide], in that order: 1460 nM, over 1000 nM, 8050 nM and 78%.
Regarding `O=C(NO)c1ccc(Cn2nnnc2-c2cccs2)cc1` [comp. 8, N-hydroxy-4-((5-(thiophen-2-yl)-1H-tetrazol-1-yl)methyl)benzamide], the “residual percentage in human S9 fraction” value in data set [1] (setting [3]) amounted to 100%. For the same molecule, in data set [2], the IC50 turned out to be 3500 nM.
Turning to `Cn1c(Sc2ccc(C(=O)NO)cc2)nnc1-c1cccs1` [comp. 10, N-hydroxy-4-((4-methyl-5-(thiophen-2-yl)-4H-1,2,4-triazol-3-yl)thio)benzamide], the IC50 against HDAC4 was found to be 2500 nM; in data set [2], 4500 nM; against HDAC11, 981 nM. The “residual percentage in human S9 fraction” value in data set [1] (setting [3]) is listed as 95%.
For `Cn1c(Sc2c(F)cc(C(=O)NO)cc2F)nnc1-c1cccs1` [comp. 17, 3,5-difluoro-N-hydroxy-4-((4-methyl-5-(thiophen-2-yl)-4H-1,2,4-triazol-3-yl)thio)benzamide], in that order: 1390 nM, 9000 nM, 2290 nM and 83%.
Turning to `O=C(NO)c1ccc(Cn2nnc(-c3ccc(C(F)(F)F)cc3)n2)cc1` [comp. 23, 4-[[5-[4-(trifluoromethyl)phenyl]tetrazol-2-yl]methyl]benzenecarbohydroxamic acid], the IC50 at HDAC4 was 4240 nM; against HDAC11, 486 nM.
On the same counts, the results for `Nn1c(Sc2ccc(C(=O)NO)cc2)nnc1-c1ccc(OC(F)F)cc1` [comp. 28, 4-[[4-amino-5-[4-(difluoromethoxy)phenyl]-1,2,4-triazol-3-yl]sulfanyl]benzenecarbohydroxamic acid] are 1330 nM and 568 nM.
Regarding `O=C(NO)c1ccc(Cn2nnc(-c3cccs3)n2)cc1` [comp. 50, 4-[[5-(2-thienyl)tetrazol-2-yl]methyl]benzenecarbohydroxamic acid], the IC50 at HDAC4 was found to be 1950 nM; against HDAC11 it was 245 nM.
With `O=C(NO)c1ccc(Cc2nnc(-c3ccc(F)cc3F)o2)cc1` [comp. 58, 4-((5-(2,4-difluorophenyl)-1,3,4-oxadiazol-2-yl)methyl)-N-hydroxybenzamide], the IC50 on HDAC4 is 3930 nM; on HDAC11, 282 nM.
On the same counts, the results for `CN(C)c1cccc(-c2nnc(Sc3c(F)cc(C(=O)NO)cc3F)n2C)c1` [comp. 80, 4-[[5-[3-(dimethylamino)phenyl]-4-methyl-1,2,4-triazol-3-yl]sulfanyl]-3,5-difluoro-benzenecarbohydroxamic acid] are 731 nM and 2820 nM.
With `Cn1c(Sc2c(F)cc(C(=O)NO)cc2F)nnc1C(c1ccccc1)c1ccccc1` [comp. 98, 4-[(5-benzhydryl-4-methyl-1,2,4-triazol-3-yl)sulfanyl]-3,5-difluoro-benzenecarbohydroxamic acid], the IC50 stood at 1610 nM at HDAC4 and 2090 nM on HDAC11.
Regarding `O=C(NO)c1cc(F)c(Cn2nnnc2-c2ncccn2)c(F)c1` [comp. 125, 3,5-difluoro-4-[(5-pyrimidin-2-yltetrazol-1-yl)methyl]benzenecarbohydroxamic acid], the “residual percentage in human S9 fraction” value in data set [1] (human, 90 min, pH 7.4) was determined as 83%. Besides, the IC50 in data set [2] was over 10000 nM.
In the case of `Cn1c(Sc2c(F)cc(C(=O)NO)cc2F)nnc1-c1cccc(CN2CCCCCC2)c1` [comp. 167, 4-[[5-[3-(azepan-1-ylmethyl)phenyl]-4-methyl-1,2,4-triazol-3-yl]sulfanyl]-3,5-difluoro-benzenecarbohydroxamic acid], the “residual percentage in human S9 fraction” value in data set [1] (setting [3]) is recorded as 78%. For the same molecule, in data set [2], the IC50 was over 10000 nM.
Regarding `Cn1c(Sc2c(F)cc(C(=O)NO)cc2F)nnc1-c1ccc(CN2CCCCCC2)cc1` [comp. 168, 4-[[5-[4-(azepan-1-ylmethyl)phenyl]-4-methyl-1,2,4-triazol-3-yl]sulfanyl]-3,5-difluoro-benzenecarbohydroxamic acid], the IC50 in data set [2] was 7000 nM.
Turning to `Nc1ccc(-c2nnn(Cc3c(F)cc(C(=O)NO)cc3F)n2)cc1` [comp. 171, 4-[[5-(4-aminophenyl)tetrazol-2-yl]methyl]-3,5-difluoro-benzenecarbohydroxamic acid], in data set [1] (setting [3]), the “residual percentage in human S9 fraction” value came to 74%. The IC50 in data set [2] is over 10000 nM.
On the same counts, the results for `Cn1c(Sc2c(F)cc(C(=O)NO)cc2F)nnc1-c1cccnn1` [comp. 179, 3,5-difluoro-4-[(4-methyl-5-pyridazin-3-yl-1,2,4-triazol-3-yl)sulfanyl]benzenecarbohydroxamic acid] are 79% and over 10000 nM.
For `Cn1c(Sc2c(F)cc(C(=O)NO)cc2F)nnc1-c1ncccc1F` [comp. 180, 3,5-difluoro-4-[[5-(3-fluoro-2-pyridyl)-4-methyl-1,2,4-triazol-3-yl]sulfanyl]benzenecarbohydroxamic acid], in that order: 80% and over 10000 nM.
On the same counts, the results for `O=C(NO)c1cc(F)c(Cc2nnc(-c3ccncc3)s2)c(F)c1` [compound 195, 3,5-difluoro-4-[[5-(4-pyridyl)-1,3,4-thiadiazol-2-yl]methyl]benzenecarbohydroxamic acid] are 68% and over 10000 nM.

Values taken from US11351178B2, “Selective HDAC6 inhibitors” (ITALFARMACO S.P.A., priority 2017, dated 2022).
